Assay results as given in patent US11389447B2 (Janssen Sciences Ireland Unlimited Company, priority 2006, dated 2022).

Assay: Kinetic study: plasma kinetics of TMC278 after single IM or SC injection of a nanosuspension;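 further: healthy male beagle dogs injected in both biceps femoris muscles (IM) or both thoracal sides (SC), total volume 0.2 mL/kg, drug measured in plasma from blood samples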
Format: in vivo, male beagle dogs
Settings: for AUC0-312 h / AUC0-696 h / AUC0-2208 h / Cmax / Tmax / plasma concentration of TMC278: single IM 5 mg eq./kg TMC278.HCl nanosuspension
Experimental: Six healthy male beagle dogs with body weights ranging from 8 to 16 kg at the start of the study, were used. Each dog was identified by an ear tattoo number. Two dogs were dosed intramuscularly (IM) in the left and right m. biceps femoris (treatment group A). […] Two dogs were dosed subcutaneously (SC) in the left and right thoracal region. The injection volume was 2×0.1 ml/kg in all treatment groups. A 20 G needle was used.
Blood samples of 3 ml were taken from the left jugular vein from all dogs on day 0 at 0 h (predose), 20 min, 1 h, 3 h, 8 h and 24 h post-dose and further on days 2, 3, 6, 8, 10, 13, 16, 20, 23, 27, 29, 36, 43, 50, 57, 64, 71, 78, 85 and 92 at approximately 8 AM. Blood samples were placed on EDTA, EDTA Vacuette Greiner, Cat. No. 454086, Greiner Labortechnik N.V.). Within 2 h of blood sampling, samples were centrifuged at room temperature at about 1900×g for 10 minutes to allow plasma separation. Plasma was immediately transferred into a second tube and stored in the freezer within 2 hours after the start of centrifugation.

AUC0-312 h (dog 19072): 15 µg·h/mL | AUC0-696 h (dog 19072): 20.3 µg·h/mL | AUC0-2208 h (dog 19072): 27.4 µg·h/mL | Cmax (dog 19072): 0.0856 µg/mL | Tmax (dog 19072): 48 h | plasma concentration of TMC278 (dog 19072, 0 h (d0, predose)): <0.001 µg/mL | plasma concentration of TMC278 (dog 19072, 1 h): 0.0078 µg/mL | plasma concentration of TMC278 (dog 19072, 3 h): 0.0147 µg/mL | plasma concentration of TMC278 (dog 19072, 8 h): 0.0322 µg/mL | plasma concentration of TMC278 (dog 19072, 24 h (d1)): 0.0501 µg/mL | plasma concentration of TMC278 (dog 19072, 48 h (d2)): 0.0856 µg/mL | plasma concentration of TMC278 (dog 19072, 72 h (d3)): 0.0475 µg/mL | plasma concentration of TMC278 (dog 19072, 144 h (d6)): 0.0483 µg/mL | plasma concentration of TMC278 (dog 19072, 192 h (d8)): 0.0468 µg/mL | plasma concentration of TMC278 (dog 19072, 240 h (d10)): 0.0557 µg/mL | plasma concentration of TMC278 (dog 19072, 312 h (d13)): 0.027 µg/mL | plasma concentration of TMC278 (dog 19072, 384 h (d16)): 0.017 µg/mL | plasma concentration of TMC278 (dog 19072, 480 h (d20)): 0.0137 µg/mL | plasma concentration of TMC278 (dog 19072, 648 h (d27)): 0.00791 µg/mL | plasma concentration of TMC278 (dog 19072, 696 h (d29)): 0.0102 µg/mL | plasma concentration of TMC278 (dog 19072, 864 h (d36)): 0.00618 µg/mL | plasma concentration of TMC278 (dog 19072, 1032 h (d43)): 0.00632 µg/mL | plasma concentration of TMC278 (dog 19072, 1200 h (d50)): 0.00456 µg/mL | plasma concentration of TMC278 (dog 19072, 1368 h (d57)): 0.00473 µg/mL | plasma concentration of TMC278 (dog 19072, 1536 h (d64)): 0.00447 µg/mL | plasma concentration of TMC278 (dog 19072, 1704 h (d71)): 0.00338 µg/mL | plasma concentration of TMC278 (dog 19072, 1872 h (d78)): 0.00312 µg/mL | plasma concentration of TMC278 (dog 19072, 2040 h (d85)): 0.0032 µg/mL | plasma concentration of TMC278 (dog 19072, 2208 h (d92)): 0.00296 µg/mL | AUC0-312 h (dog 19080): 20.9 µg·h/mL | AUC0-696 h (dog 19080): 30.5 µg·h/mL | AUC0-2208 h (dog 19080): 39.9 µg·h/mL | Cmax (dog 19080): 0.105 µg/mL | Tmax (dog 19080): 48 h | plasma concentration of TMC278 (dog 19080, 0 h (d0, predose)): <0.001 µg/mL | plasma concentration of TMC278 (dog 19080, 1 h): 0.00719 µg/mL | plasma concentration of TMC278 (dog 19080, 3 h): 0.0163 µg/mL | plasma concentration of TMC278 (dog 19080, 8 h): 0.0271 µg/mL | plasma concentration of TMC278 (dog 19080, 24 h (d1)): 0.0698 µg/mL | plasma concentration of TMC278 (dog 19080, 48 h (d2)): 0.105 µg/mL | plasma concentration of TMC278 (dog 19080, 72 h (d3)): 0.0695 µg/mL | plasma concentration of TMC278 (dog 19080, 144 h (d6)): 0.0623 µg/mL | plasma concentration of TMC278 (dog 19080, 192 h (d8)): 0.0658 µg/mL | plasma concentration of TMC278 (dog 19080, 240 h (d10)): 0.0822 µg/mL | plasma concentration of TMC278 (dog 19080, 312 h (d13)): 0.0458 µg/mL | plasma concentration of TMC278 (dog 19080, 384 h (d16)): 0.0319 µg/mL | plasma concentration of TMC278 (dog 19080, 480 h (d20)): 0.0255 µg/mL | plasma concentration of TMC278 (dog 19080, 648 h (d27)): 0.0144 µg/mL | plasma concentration of TMC278 (dog 19080, 696 h (d29)): 0.0188 µg/mL | plasma concentration of TMC278 (dog 19080, 864 h (d36)): 0.0114 µg/mL | plasma concentration of TMC278 (dog 19080, 1032 h (d43)): 0.00818 µg/mL | plasma concentration of TMC278 (dog 19080, 1200 h (d50)): 0.00568 µg/mL | plasma concentration of TMC278 (dog 19080, 1368 h (d57)): 0.00508 µg/mL | plasma concentration of TMC278 (dog 19080, 1536 h (d64)): 0.00443 µg/mL | plasma concentration of TMC278 (dog 19080, 1704 h (d71)): 0.0039 µg/mL | plasma concentration of TMC278 (dog 19080, 1872 h (d78)): 0.0032 µg/mL | plasma concentration of TMC278 (dog 19080, 2040 h (d85)): 0.004 µg/mL | plasma concentration of TMC278 (dog 19080, 2208 h (d92)): 0.00281 µg/mL | AUC0-312 h (mean of 2 dogs): 18 µg·h/mL | AUC0-696 h (mean of 2 dogs): 25.4 µg·h/mL | AUC0-2208 h (mean of 2 dogs): 33.6 µg·h/mL | Cmax (mean of 2 dogs): 0.0953 µg/mL | Tmax (mean of 2 dogs): 48 h | plasma concentration of TMC278 (mean of 2 dogs, 0 h (d0, predose)): <0.001 µg/mL | plasma concentration of TMC278 (mean of 2 dogs, 1 h): 0.0075 µg/mL | plasma concentration of TMC278 (mean of 2 dogs, 3 h): 0.0155 µg/mL | plasma concentration of TMC278 (mean of 2 dogs, 8 h): 0.0297 µg/mL | plasma concentration of TMC278 (mean of 2 dogs, 24 h (d1)): 0.06 µg/mL | plasma concentration of TMC278 (mean of 2 dogs, 48 h (d2)): 0.0953 µg/mL | plasma concentration of TMC278 (mean of 2 dogs, 72 h (d3)): 0.0585 µg/mL | plasma concentration of TMC278 (mean of 2 dogs, 144 h (d6)): 0.0553 µg/mL | plasma concentration of TMC278 (mean of 2 dogs, 192 h (d8)): 0.0563 µg/mL | plasma concentration of TMC278 (mean of 2 dogs, 240 h (d10)): 0.069 µg/mL | plasma concentration of TMC278 (mean of 2 dogs, 312 h (d13)): 0.0364 µg/mL | plasma concentration of TMC278 (mean of 2 dogs, 384 h (d16)): 0.0245 µg/mL | plasma concentration of TMC278 (mean of 2 dogs, 480 h (d20)): 0.0196 µg/mL | plasma concentration of TMC278 (mean of 2 dogs, 648 h (d27)): 0.0112 µg/mL | plasma concentration of TMC278 (mean of 2 dogs, 696 h (d29)): 0.0145 µg/mL | plasma concentration of TMC278 (mean of 2 dogs, 864 h (d36)): 0.00879 µg/mL | plasma concentration of TMC278 (mean of 2 dogs, 1032 h (d43)): 0.00725 µg/mL | plasma concentration of TMC278 (mean of 2 dogs, 1200 h (d50)): 0.00512 µg/mL | plasma concentration of TMC278 (mean of 2 dogs, 1368 h (d57)): 0.00491 µg/mL | plasma concentration of TMC278 (mean of 2 dogs, 1536 h (d64)): 0.00445 µg/mL | plasma concentration of TMC278 (mean of 2 dogs, 1704 h (d71)): 0.00364 µg/mL | plasma concentration of TMC278 (mean of 2 dogs, 1872 h (d78)): 0.00316 µg/mL | plasma concentration of TMC278 (mean of 2 dogs, 2040 h (d85)): 0.0036 µg/mL | plasma concentration of TMC278 (mean of 2 dogs, 2208 h (d92)): 0.00289 µg/mL
SMILES: Cc1cc(/C=C/C#N)cc(C)c1Nc1ccnc(Nc2ccc(C#N)cc2)n1.Cl [TMC278.HCl]
blood plasma levels after injection (in words) (injectable formulation of nanonised substance, 5 mg/kg, male beagle dogs): stable blood plasma levels during a prolonged period of time
